Here are results for 5 compounds from paper PMC8175350, “Drug repurposing screens identify chemical entities for the development of COVID-19 interventions” (Nature Communications, 2021).

For data set [1], the system named is HeLa-ACE2 cells. The data set can be described thus: cells. The conditions noted are these: Homo sapiens; for Emax: HeLa-ACE2, 24 h, read-out: HeLa-ACE2 cell count Sinf Average.
Data set [2] can be described thus: Uninfected HeLa-ACE2 24 h live/dead cytotoxicity counter screen. Format: cell-based, human. Conditions: human, uninfected HeLa-ACE2 cells. A general note: Counterscreens check selectivity or assay interference.
The test system of data set [3] is HeLa-ACE2 cells. Described as above. The format is cell-based, human.
In data set [4] the test system is SARS-CoV-2. Nature of the data set: microbe, parasite or virus in culture. Format: cell-based. The conditions noted are these: for Emax: Severe acute respiratory syndrome coronavirus 2, HeLa-ACE2, 24 h, read-out: HeLa-ACE2 CoV-2 Sinf Average.
The conditions of data set [5]: cited from earlier work.
Data set [6] deals with Calu-3 cells. Nature of the data set: cells. Conditions: Homo sapiens; for Emax: Calu-3, 48 h, read-out: Calu-3 cell count Sinf Average.
Data set [7] in a line: Uninfected Calu-3 48 h Cell-Titer Glo cytotoxicity counter screen. The conditions noted are these: human, uninfected Calu-3 cells.
Data set [8] has as its system Calu-3 cells. The description is as above.
Data set [9] deals with SARS-CoV-2. Nature of the data set: microbe, parasite or virus in culture. The format is cell-based. The conditions noted are these: for Emax: Severe acute respiratory syndrome coronavirus 2, Calu-3, 48 h, read-out: Calu-3 CoV-2 Sinf Average.
A short description of data set [10]: in vitro. Conditions: human.
The test system of data set [11] is HeLa-ACE2 cells. Nature of the data set: Total cell count in the HeLa-ACE2 TOA (time of addition) assay. The format is cell-based, human. Conditions: Homo sapiens, HeLa-ACE2; read-out: HeLa-ACE2 TOA cell count EC50 GeoMean.
The test system of data set [12] is SARS-CoV-2. The format is cell-based. Conditions: for Synergy score with remdesivir (δ): HeLa-ACE2.
The subject of data set [13] is HepG2. The conditions noted are these: human, 72 h.
Data set [14] relates to SARS-CoV-2. The data set can be described thus: microbe, parasite or virus in culture. Format: cell-based. Conditions: for Emax: Severe acute respiratory syndrome coronavirus 2, HeLa-ACE2, 10 h, read-out: HeLa-ACE2 TOA CoV-2 Sinf Average; for pEC50: Severe acute respiratory syndrome coronavirus 2, HeLa-ACE2, read-out: HeLa-ACE2 TOA CoV-2 EC50 GeoMean.
In data set [15] the test system is HEK293T. The conditions noted are these: human, 72 h.
Data set [16] concerns Calu-3 cells.
The subject of data set [17] is HeLa-ACE2 cells. Nature of the data set: Total cell count in the HeLa-ACE2 TOA assay. The format is cell-based. The conditions noted are these: Homo sapiens. The source says:
Supplement 41467_2021_23328_MOESM3_ESM.xlsx, sheet "Table S1" | column: HeLa-ACE2 TOA cell count

The test system of data set [18] is HepG2. The data set can be described thus: HepG2 72 h CellTiter-Glo cytotoxicity. Conditions: 72 h. Background: Cellular ATP, detected with luciferase, serves as a proxy for viable cell number.
Data set [19] in a line: HepG2 72 h CellTiter-Glo cytotoxicity. Conditions: human, HepG2 cells.
For data set [20], the system named is HEK293T. The data set can be described thus: HEK293T 72 h CellTiter-Glo cytotoxicity. The conditions noted are these: 72 h.
Data set [21] can be described thus: HEK293T 72 h CellTiter-Glo cytotoxicity. The conditions noted are these: human, HEK293T cells.
The mark [22] stands for this setting: HeLa-ACE2, read-out: HeLa-ACE2 cell count EC50 GeoMean, unrounded geometric mean.
The mark [23] stands for this setting: reconfirmed hits, read-out: HeLa-ACE2 Uninf. cells CC50.
Where [24] appears, read: unrounded geometric mean, read-out: HeLa-ACE2 uninfected cytotoxicity CC50 GeoMean.
The mark [25] stands for this setting: curve-fit effect at infinite concentration, average.
The mark [26] stands for this setting: Severe acute respiratory syndrome coronavirus 2, HeLa-ACE2, reconfirmed hits, read-out: HeLa-ACE2 SARS-CoV-2 EC50.
The mark [27] stands for this setting: Severe acute respiratory syndrome coronavirus 2, HeLa-ACE2, unrounded geometric mean, read-out: HeLa-ACE2 CoV-2 EC50 GeoMean.
Setting [28] is: read-out: Approx. Cmax, human, oral, ref [36],[37],[42],[43] as in column Refs.
Where [29] appears, read: Calu-3, read-out: Calu-3 cell count EC50 GeoMean, unrounded geometric mean.
Where [30] appears, read: Calu-3 Uninf. cells CC50 (µM), reconfirmed hits.
Setting [31] is: Calu-3 uninfected cytotoxicity CC50 GeoMean, unrounded geometric mean.
The mark [32] stands for this setting: Severe acute respiratory syndrome coronavirus 2, Calu-3, reconfirmed hits, read-out: Calu-3 SARS-CoV-2 EC50.
[33] abbreviates: Severe acute respiratory syndrome coronavirus 2, Calu-3, unrounded geometric mean, read-out: Calu-3 CoV-2 EC50 GeoMean.
[34] abbreviates: HeLa-ACE2, read-out: HeLa-ACE2 cell count EC50 GeoMean.
[35] abbreviates: read-out: HeLa-ACE2 uninfected cytotoxicity CC50 GeoMean.
The mark [36] stands for this setting: Calu-3, read-out: Calu-3 cell count EC50 GeoMean.
The mark [37] stands for this setting: curve plateau at infinite concentration.

pEC50: −log10 of the molar value. Structures can show the parent of a compound that is named as a salt. Where two headings read alike, the source gives them in different places.

What is called pEC50 is −log10 of the EC50, conventionally taken in molar units. A word on the CC50: it is the concentration that lowers cell viability or growth by half. As a reminder, the Cmax is the highest concentration seen after dosing.

Turning to `COC(=O)[C@]12CCC(C)(C)C[C@H]1[C@H]1C(=O)C=C3[C@@]4(C)C=C(C#N)C(=O)C(C)(C)[C@@H]4CC[C@@]3(C)[C@]1(C)CC2` [Bardoxolone methyl], the Emax amounted to 101% in data set [1], 100% in [4] (setting [25]), 41% in [6] and 96% in data set [9] (setting [25]). In addition, the negative-log EC50 (pEC50) is 5.90 in data set [1] (setting [22]); 6.27 in data set [4] (setting [26]); 6.27 in [4] (setting [27]); 6.94 in [6] (setting [29]); 7.10 in [9] (setting [32]); 7.10 in data set [9] (setting [33]). Besides, the CC50 at 24 h in [2] (setting [23]) is 3.1 µM; in data set [2] (uninfected cells, Fig. 2b group, read-out: HeLa-ACE2 CC50), at most 3 µM; in [2] (setting [24]) it was 3.1 µM. Further, the “HeLa-ACE2 uninfected cytotoxicity Sinf Average” value in data set [3] (setting [25]) is -101%. Also, the “Approx. t1/2” value in data set [5] (human, ref [33]-[49]) is 39 h. For the same compound, the Cmax in [5] (setting [28]) was 50 nM. Moreover, the 50% cytotoxic concentration (CC50) at 48 h in data set [7] (setting [30]) and in data set [7] (setting [31]) was 3.06 µM throughout. Further, in [8] (setting [25]), the “Calu-3 uninfected cytotoxicity Sinf Average” value is -97%.

For the compound `C=Cc1cc(C(=O)Nc2ccc(C(=N)N)cc2)c(-c2ccc(C(=O)NCC3CC3)nc2C(=O)O)cc1OC` [Avoralstat], the pEC50 in data set [1] (setting [22]) was below 5.02; in data set [4] (setting [26]), below 5.02; in data set [4] (setting [27]) it was below 5.02; in data set [6] (setting [29]), 6.24; in [9] (setting [32]), 6.41; in data set [9] (setting [33]), 6.41. Also, the half-maximal cytotoxic concentration (CC50) at 24 h in [2] (setting [23]) is above 40 µM; in [2] (setting [24]) it was above 39.8 µM. For the same compound, the values for the CC50 in [10] (setting [30]) and in [10] (setting [31]) were above 30 µM and above 29.9 µM, respectively. For the same compound, in [5] (human, ref [33]-[49]), the “Approx. t1/2” value is 14 h. Moreover, the Cmax in data set [5] (setting [28]) is 364 nM. In addition, the results for the Emax in [6] and in data set [9] (setting [25]) were 91% and 88%, respectively.

For `COc1ccc2c(O[C@@H]3C[C@H]4C(=O)N[C@]5(C(=O)NS(=O)(=O)C6CC6)C[C@H]5/C=C\CCCCN(C)C(=O)[C@@H]4C3)cc(-c3nc(C(C)C)cs3)nc2c1C` [Simeprevir], the Emax in [1], in data set [4], in [6], in data set [14] and in [9] was 100% in each case. The pEC50 is below 5.02 in data set [1] (setting [34]); below 5.02 in data set [11]; below 5.10 in [4] (Severe acute respiratory syndrome coronavirus 2, HeLa-ACE2, detail column, read-out: HeLa-ACE2 CoV-2 EC50 GeoMean); 5.10 in data set [4] (setting [26]); below 5.02 in data set [6] (setting [36]); below 5.06 in [14]. The pEC50 was below 5.11 in data set [9] (Severe acute respiratory syndrome coronavirus 2, Calu-3, detail column, read-out: Calu-3 CoV-2 EC50 GeoMean) and 5.11 in [9] (setting [32]). In addition, the CC50 at 24 h in data set [2] (setting [23]) and in data set [2] (setting [35]) was above 22.2 µM each time. Moreover, in data set [3] (human, uninfected HeLa-ACE2 cells, 24 h), the “HeLa-ACE2 uninfected cytotoxicity Sinf Average” value is recorded as -100%. Moreover, the “HeLa-ACE2 SI” value in data set [4] (selectivity index, uninfected HeLa-ACE2 CC50 / SARS-CoV-2 EC50) was above 2.81. For the same compound, the “Synergy score with remdesivir (δ)” value in data set [12] is −0.67. For the same compound, the “HeLa-ACE2 synergy score with remdesivi” value in data set [12] (combination with remdesivir) was -0.667 δ. Besides, the “HepG2 72-hour cytotoxicity Sinf Average” value in data set [13] is given as -100%. Besides, the CC50 at 48 h in [10] (Calu-3 Uninf. cells CC50 (µM)) was above 22.4 µM. Besides, the Cmax in data set [5] (human, in vivo, po) is 32000 nM. The “Approx. t1/2” value in data set [5] (human, ref [33]-[49]) is 16 h. Also, the “HEK293T 72-hour cytotoxicty Sinf Average” value in data set [15] is -102%. Besides, the “Calu-3 SI” value in data set [9] (selectivity index, uninfected Calu-3 CC50 / SARS-CoV-2 EC50) is recorded as above 2.91. Moreover, the “uninfected Calu-3 CC50” value in [16] is recorded as > 22.39 ×÷ 1.591 (n=6) μM. Also, in data set [16] (human, 48 h), the “Calu-3 uninfected cytotoxicity Sinf Average” value is -100%.

As to `CC(C)(C)Cn1c(N)nc2ccc(-c3[nH]c(C(C)(C)C)nc3-c3ccc(F)cc3)nc21` [Ralimetinib mesylate/LY2228820, Ralimetinib mesylate], the Emax was -60% in [1]; 100% in data set [4] (setting [37]); 55% in data set [17] (HeLa-ACE2, 10 h, curve plateau at infinite concentration, read-out: HeLa-ACE2 TOA cell count Sinf Average); 95% in data set [6]; 100% in data set [14] (setting [37]); 100% in data set [9] (setting [37]). Moreover, the pEC50 in data set [1] (setting [34]) is below 5.16; in data set [4] (setting [26]) it was 5.73; in data set [17] (HeLa-ACE2, read-out: HeLa-ACE2 TOA cell count EC50 GeoMean), below 5.35; in data set [6] (setting [36]) it was 5.26; in data set [14], 6.10; in data set [9] (setting [32]), 5.42. Besides, the CC50 at 24 h in data set [2] (setting [23]) and in [2] (setting [35]) was 27.4 µM each time. Besides, the “HeLa-ACE2 uninfected cytotoxicity Sinf Average” value in data set [3] (setting [37]) is -99%. For the same compound, in [12] (combination with remdesivir, synergy score δ), the “HeLa-ACE2 synergy score with remdesivi [δ]” value is -0.846. Also, the “Approx. t1/2” value in [5] (human, ref [33]-[49]) was 190 h. In addition, the Cmax in data set [5] (read-out: Approx. Cmax, human oral, ref [33]-[49]) is 5000 nM. Also, the CC50 at 48 h in data set [7] (setting [30]) and in data set [7] (Calu-3 uninfected cytotoxicity CC50 GeoMean) was 13.8 µM throughout. Besides, in [8] (setting [37]), the “Calu-3 uninfected cytotoxicity Sinf Average” value is -97%. Besides, the “HepG2 72-hour cytotoxicity Sinf Average” value in data set [18] is -100%. Moreover, the CC50 at 72 h in data set [19] turned out to be 19.8 µM; in [21], 20.3 µM. Moreover, in data set [20], the “HEK293T 72-hour cytotoxicty Sinf Average” value is -100%.

Take `COC(=O)C1=C(C)NC(C)=C(C(=O)OCCN2CCN(C(c3ccccc3)c3ccccc3)CC2)C1c1cccc([N+](=O)[O-])c1` (centres unmarked) [Manidipine]: the CC50 at 24 h in [2] (setting [23]) was above 17.1 µM. Besides, the pEC50 in data set [4] (setting [26]) is 5.16; in [9] (setting [32]) it was 5.26. Also, in data set [12], the “Synergy score with remdesivir (δ)” value is −4.73. In data set [10] (Calu-3 Uninf. cells CC50 (µM)), this compound yielded a half-maximal cytotoxic concentration (CC50) at 48 h above 30 µM. Further, the Cmax in data set [5] (human, in vivo, po) is 10 nM. Moreover, the “Approx. t1/2” value in [5] (human, ref [33]-[49]) was 3 h.
